What all share (assay type): binding, Paenibacillus sp. FPU-7
The target of test [1] is T1, NagB2.
T1 construct: recombinant without signal peptide (Met1 to Ala20), C-terminal LEHHHHHH
Kind of test: SPR (Biacore X100), crystal structure at […] Å, DSF. (In general: SPR reads the build-up and loss of mass on a sensor chip optically.)

The target in test [2] is T2, NagB1.
T2 construct: recombinant without Met1–Ser21 signal peptide and Cys22–Phe48 (starts at Thr49), C-terminal LEHHHHHH
Nature of the test: SPR (Biacore X100), crystal structure at […] Å, DSF.

In test [3] the target is T2, NagB1. Nature of the test: SPR (Biacore X100), DSF.
The target in test [4] is T1, NagB2. Kind of test: SPR (Biacore X100), crystal structure at […] Å, DSF. The source holds these as a separate data set.

Where two headings read alike, the source gives them in different places.

Take `CC(=O)N[C@H]1[C@H](O[C@H]2[C@H](O)[C@@H](NC(C)=O)C(O)O[C@@H]2CO)O[C@H](CO)[C@@H](O)[C@@H]1O` (stereo partly shown) [(GlcNAc)2, N,N′-diacetylchitobiose]: the Kd on NagB2 [1] came out at 0.19 µM; at NagB1 [2] it was 0.173 µM.

On to `CC(=O)N[C@H]1[C@H](O[C@H]2[C@H](O)[C@@H](NC(C)=O)C(O)O[C@@H]2CO)O[C@H](CO)[C@@H](O[C@@H]2O[C@H](CO)[C@@H](O)[C@H](O)[C@H]2NC(C)=O)[C@@H]1O` (stereo partly shown) [(GlcNAc)3, N,N′,N′′-triacetylchitotoriose], for which the Kd on NagB1 [3] was found to be 2.97 µM; at NagB2 [4], 1.12 µM.

The Kd is the equilibrium constant for the complex coming apart. High values mean a looser complex, low ones a tighter complex.

Values taken from PMC8233162, “Structural characterization of two solute-binding proteins for N,N′-diacetylchitobiose/N,N′,N′′-triacetylchitotoriose of the gram-positive bacterium, Paenibacillus sp. str. FPU-7” (Journal of Structural Biology: X, 2021).
